Reference: US20030216413A1, “Catecholamine pharmaceutical compositions and methods” (priority 2000, published 2003)
Counter-ions that a name gives are not always drawn.

Experiments:
[1] = Treatment of a patient with asthma (Examples 1-3)
Protocol: A patient presents with asthma complicated by degenerative heart disease and has variously used 0.25% or 1% isoproterenol aerosols, 0.10-0.20 mg epinephrine-bitartrate inhalers, and 90 μg albuterol every day at 4-6 hour intervals. […] The subject is administered an aerosol composition comprising 0.075% isoproterenol and 1.0% ascorbic acid.
A patient presents with asthma and has previously used 90 μg albuterol every day at 4-6 hour intervals. […] The subject is administered composition comprising 50 μg albuterol and […] morphine sulfate.
A patient presents with asthma and has previously used a 0.20 mg/dose epinephrine bitartrate inhaler every day at 6 hour intervals. The subject is administered a composition delivering a unit dose comprising 0.03 mg epinephrine bitatrate and 0.2 mg EDTA from a conventional inhaler.

[2] = 1:100,000 sterile aqueous solution; cited from earlier work
[3] = daily injections of 1 mg/kg for seven days; cited from earlier work
[4] = 1:1000 or 1:10,000 epinephrine in sterile aqueous solution; cited from earlier work
[5] = 1:1000 to 1:10,000 solutions; cited from earlier work

Structure (SMILES): CC(C)(C)NCC(O)c1ccc(O)c(CO)c1 (centres unmarked) [albuterol]
- adverse side effects ([1]; human, in vivo): unacceptable side effects
- control of asthma / symptom relief ([1]; patient with asthma): not well controlled

Structure (SMILES): CNC[C@H](O)c1ccc(O)c(O)c1 [epinephrine-bitartrate]
- adverse side effects ([1]; human, in vivo): unacceptable side effects

Structure (SMILES): CNC[C@H](O)c1ccc(O)c(O)c1 [epinephrine hydrochloride]
- duration of beneficial effect of conventional treatment [2]: about 15 minutes

Structure (SMILES): C[C@H](N)Cc1ccccc1 [D-amphetamine]
- side effects of the typical treatment [3]: Side effects often result

Structure (SMILES): CC(C)NCC(O)c1ccc(O)c(O)c1 (centres unmarked) [isoproterenol]
- adverse side effects ([1]; patient with asthma): unacceptable side effects

Structure (SMILES): CNC[C@H](O)c1ccc(O)c(O)c1 [epinephrine]
- side effects of conventional formulations [4]: fear, anxiety, restlessness, and sleeplessness, dizziness and palpitations
- duration of action of conventional treatment [5]: only a few minutes
